Measurements published in ChEMBL document CHEMBL5316381, “Discovery of [1,2,3]Triazolo[4,5-c]quinoline Derivatives as a New Class of Ataxia-Telangiectasia Mutated Kinase Inhibitors” (ACS Med Chem Lett, 2023).
pIC50: −log10 of the molar value. The source made the active and inactive calls. The calls are words filed in the database; no cut-off is given here.

What was measured:
[1] = target: T1, Serine-protein kinase ATM (Homo sapiens, UniProt Q13315); assay: Inhibition of ATM (unknown origin) using GST-cMyc-p53 as substrate incubated for 30 mins in presence of Mg/ATP mix by HTRF-based analysis
T1 sequence (Q13315 whole entry): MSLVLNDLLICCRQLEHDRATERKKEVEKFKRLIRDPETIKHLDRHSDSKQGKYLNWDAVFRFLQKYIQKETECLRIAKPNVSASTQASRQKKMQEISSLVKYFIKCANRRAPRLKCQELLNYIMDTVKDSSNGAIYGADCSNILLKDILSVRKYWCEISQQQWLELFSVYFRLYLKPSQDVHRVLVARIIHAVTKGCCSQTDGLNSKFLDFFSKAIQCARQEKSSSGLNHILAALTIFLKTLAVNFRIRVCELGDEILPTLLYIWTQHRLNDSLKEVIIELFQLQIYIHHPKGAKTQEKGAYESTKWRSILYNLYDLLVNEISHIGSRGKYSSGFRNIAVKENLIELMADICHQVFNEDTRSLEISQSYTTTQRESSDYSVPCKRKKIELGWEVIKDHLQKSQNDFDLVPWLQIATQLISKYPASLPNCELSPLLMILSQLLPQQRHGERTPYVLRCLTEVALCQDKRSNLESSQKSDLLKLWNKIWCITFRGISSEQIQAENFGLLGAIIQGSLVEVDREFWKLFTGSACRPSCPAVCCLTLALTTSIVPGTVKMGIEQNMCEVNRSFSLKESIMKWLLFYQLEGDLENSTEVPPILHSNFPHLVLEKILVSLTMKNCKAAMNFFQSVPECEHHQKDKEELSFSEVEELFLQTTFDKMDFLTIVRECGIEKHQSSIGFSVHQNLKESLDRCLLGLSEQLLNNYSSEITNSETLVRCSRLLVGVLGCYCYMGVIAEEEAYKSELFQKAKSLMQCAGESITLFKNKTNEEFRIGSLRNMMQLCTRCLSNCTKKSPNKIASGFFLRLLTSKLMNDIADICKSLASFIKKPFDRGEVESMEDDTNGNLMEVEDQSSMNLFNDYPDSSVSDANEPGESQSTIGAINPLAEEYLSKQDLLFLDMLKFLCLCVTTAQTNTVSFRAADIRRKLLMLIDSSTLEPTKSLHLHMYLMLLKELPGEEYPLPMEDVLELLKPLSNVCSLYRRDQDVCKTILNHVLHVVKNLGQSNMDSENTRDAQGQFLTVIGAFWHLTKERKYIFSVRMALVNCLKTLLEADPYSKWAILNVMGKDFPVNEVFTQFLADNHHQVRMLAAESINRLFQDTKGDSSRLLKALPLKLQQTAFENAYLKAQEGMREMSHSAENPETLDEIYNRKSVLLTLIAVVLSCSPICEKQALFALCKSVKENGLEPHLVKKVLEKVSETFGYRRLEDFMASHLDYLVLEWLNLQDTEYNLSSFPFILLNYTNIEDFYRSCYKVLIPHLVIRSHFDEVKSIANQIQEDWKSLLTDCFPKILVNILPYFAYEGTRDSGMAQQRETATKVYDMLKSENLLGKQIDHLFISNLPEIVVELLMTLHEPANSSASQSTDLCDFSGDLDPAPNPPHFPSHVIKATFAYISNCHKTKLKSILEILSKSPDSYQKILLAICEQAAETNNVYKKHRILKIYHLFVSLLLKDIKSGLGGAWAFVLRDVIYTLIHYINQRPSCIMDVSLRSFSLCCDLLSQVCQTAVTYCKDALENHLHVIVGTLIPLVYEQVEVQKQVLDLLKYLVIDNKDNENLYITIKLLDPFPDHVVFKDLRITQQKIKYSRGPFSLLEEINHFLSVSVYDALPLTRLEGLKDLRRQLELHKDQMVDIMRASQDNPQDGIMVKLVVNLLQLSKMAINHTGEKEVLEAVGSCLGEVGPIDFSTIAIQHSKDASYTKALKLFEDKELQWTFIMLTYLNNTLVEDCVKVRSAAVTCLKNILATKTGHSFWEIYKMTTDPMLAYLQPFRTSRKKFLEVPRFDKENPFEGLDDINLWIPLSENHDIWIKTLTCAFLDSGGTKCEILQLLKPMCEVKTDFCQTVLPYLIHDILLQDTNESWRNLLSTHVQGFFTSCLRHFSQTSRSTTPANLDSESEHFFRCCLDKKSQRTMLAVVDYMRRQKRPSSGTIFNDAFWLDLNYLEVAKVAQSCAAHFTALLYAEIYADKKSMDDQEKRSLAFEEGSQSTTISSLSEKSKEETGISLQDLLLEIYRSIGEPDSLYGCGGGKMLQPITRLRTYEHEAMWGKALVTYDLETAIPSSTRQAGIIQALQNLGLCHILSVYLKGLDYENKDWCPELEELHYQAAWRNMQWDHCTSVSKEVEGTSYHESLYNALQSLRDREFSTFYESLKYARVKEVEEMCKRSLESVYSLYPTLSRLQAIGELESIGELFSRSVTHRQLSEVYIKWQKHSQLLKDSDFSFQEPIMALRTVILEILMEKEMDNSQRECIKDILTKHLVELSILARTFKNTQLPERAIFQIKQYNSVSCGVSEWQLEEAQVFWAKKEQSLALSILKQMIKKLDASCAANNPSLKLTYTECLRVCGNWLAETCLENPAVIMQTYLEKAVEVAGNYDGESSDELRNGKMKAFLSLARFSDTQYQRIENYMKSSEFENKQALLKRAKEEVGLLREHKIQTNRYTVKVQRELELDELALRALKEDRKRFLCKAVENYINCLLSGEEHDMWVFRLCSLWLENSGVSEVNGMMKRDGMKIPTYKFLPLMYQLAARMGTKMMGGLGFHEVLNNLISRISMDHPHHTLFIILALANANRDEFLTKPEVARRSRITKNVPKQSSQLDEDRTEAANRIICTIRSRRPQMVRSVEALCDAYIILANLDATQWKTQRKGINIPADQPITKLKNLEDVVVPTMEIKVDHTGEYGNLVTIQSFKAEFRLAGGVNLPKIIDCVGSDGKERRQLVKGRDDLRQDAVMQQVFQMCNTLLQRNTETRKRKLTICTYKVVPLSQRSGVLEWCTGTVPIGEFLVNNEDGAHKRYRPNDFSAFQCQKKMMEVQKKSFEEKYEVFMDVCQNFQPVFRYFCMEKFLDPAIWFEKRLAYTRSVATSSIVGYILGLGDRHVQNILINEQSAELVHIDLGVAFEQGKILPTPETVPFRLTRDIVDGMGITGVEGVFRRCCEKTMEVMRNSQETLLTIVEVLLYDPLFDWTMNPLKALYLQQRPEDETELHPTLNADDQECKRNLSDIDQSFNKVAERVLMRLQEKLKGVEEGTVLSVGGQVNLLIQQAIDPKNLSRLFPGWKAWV

[2] = tested on: SW-620; assay: Anticancer activity against human SW620 cells assessed as reduction in cell viability incubated for 5 days by MTT assay; assay type: functional, cell-based; settings: SW-620, 120 h
[3] = tested on: HCT-116; assay: Anticancer activity against human HCT-116 cells assessed as reduction in cell viability incubated for 5 days by MTT assay; assay type: functional, cell-based; settings: HCT-116, 120 h
[4] = target: T1, Serine-protein kinase ATM; assay: Inhibition of ATM in human SW620 cells assessed as increase in gamma H2AX foci at 1 uM incubated for 24 hrs by confocal microscopic analysis; assay type: cell-based
[5] = tested on: SW-620; assay: Induction of apoptosis in human SW620 cells assessed as late apoptotic cells at 1 uM measured after 72 hrs by Annexin V-FITC staining based flow cytometric analysis (reference value: 5.75%); assay type: functional
[6] = tested on: SW-620; assay: Induction of apoptosis in human SW620 cells assessed as necrotic cells at 1 uM measured after 72 hrs by Annexin V-FITC staining based flow cytometric analysis (reference value: 5.83%); assay type: functional
[7] = tested on: SW-620; assay: Cell cycle arrest in human SW620 cells assessed as accumulation of cells at G2/M phase at 1 uM incubated for 24 hrs by PI staining based flow cytometric analysis; assay type: functional
[8] = tested on: SW-620; assay: Induction of apoptosis in human SW620 cells assessed as early apoptotic cells at 1 uM measured after 72 hrs by Annexin V-FITC staining based flow cytometric analysis (reference value: 1.06%); assay type: functional
[9] = tested on: SW-620; assay: Induction of apoptosis in human SW620 cells assessed as viable cells at 1 uM measured after 72 hrs by Annexin V-FITC staining based flow cytometric analysis (reference value: 87.36%); assay type: functional; settings: read-out: Activity

Row | Compound | pIC50 [1] | other results
1 | C[C@H](c1ccccc1)n1nnc2cnc3ccc(-c4ccc(OCCCN5CCCCC5)nc4)cc3c21 | 8.70 | 
2 | C[C@H](c1ccc(F)cc1)n1nnc2cnc3ccc(-c4ccc(N)nc4)cc3c21 | 8.40 | 
3 | C[C@@H](c1cccc(F)c1)n1nnc2cnc3ccc(-c4ccc(N)nc4)cc3c21 | 7.28 | 
4 | C[C@H](c1ccccc1)n1nnc2cnc3ccc(-c4cnc(N(C)C)nc4)cc3c21 | 6.32 | 
5 | CCc1c2c(nc3ccc(OC(=O)N4CCC(N5CCCCC5)CC4)cc13)-c1cc3c(c(=O)n1C2)COC(=O)[C@]3(O)CC [IRINOTECAN] |  | pIC50 [2]: 6.85; pIC50 [3]: 6.04; inhibition [4]: Active; Activity [5]: 21.89%; Activity [6]: 6.2%; Activity [7]: Active; Activity [8]: 4.61%; viability at 1 µM [9]: 67.3%
6 | COc1cccc([C@@H](C)n2nnc3cnc4ccc(-c5ccc(N)nc5)cc4c32)c1 | 8.30 | 
7 | C[C@@H](c1ccc(F)cc1)n1nnc2cnc3ccc(-c4ccc(N)nc4)cc3c21 | 6.60 | 
8 | C[C@H](c1ccccc1)n1nnc2cnc3ccc(-c4ccc(OCCCN5CCCC5)nc4)cc3c21 | 8.70 | 
9 | C[C@H](c1ccccc1)n1nnc2cnc3ccc(-c4ccc(OCCCN5CCN(C)CC5)nc4)cc3c21 | 8.70 | 
10 | Cn1nnc2cnc3ccc(-c4ccc(N)nc4)cc3c21 | 6.61 | 

More lines, main results first:

Row | pIC50 [1] | Compound | other results
11 | 7.15 | C[C@H](c1ccccc1)n1nnc2cnc3ccc(-c4ccc(N5CCCC5)nc4)cc3c21 | 
12 | 7.89 | CC(=O)Nc1ccc(-c2ccc3ncc4nnn([C@H](C)c5ccccc5)c4c3c2)cn1 | 
13 | 7.24 | C[C@H](c1ccccc1)n1nnc2cnc3ccc(-c4ccc(F)nc4)cc3c21 | 
14 | 8.70 | C[C@H](c1ccccc1)n1nnc2cnc3ccc(-c4ccc(N)nc4)cc3c21 | 
15 | 7.82 | C[C@H](c1ccccc1)n1nnc2cnc3ccc(-c4ccc(N)cc4)cc3c21 | 
16 | 7.82 | C[C@H](c1ccccc1)n1nnc2cnc3ccc(-c4cnc(N)nc4)cc3c21 | 
17 | 6.76 | C[C@H](c1ccccc1)n1nnc2cnc3ccc(-c4ccc(F)cc4)cc3c21 | 
18 | 7.51 | C[C@H](c1ccccc1)n1nnc2cnc3ccc(-c4ccc(Cl)nc4)cc3c21 | 
19 | 7.60 | C[C@H](c1ccccc1)n1nnc2cnc3ccc(-c4ccc(O)nc4)cc3c21 | 
